# Measurements reported in patent US11150234B2, “Method for evaluating taxic behavior in response to odor substance based on olfactory sense in nematodes, and dish and behavior evaluation system used in evaluation method” (priority 2016, dated 2021).
# How the values were obtained:
# [1] = system: wild type C. elegans; experiment: Taxic behavior evaluation through olfactory sense using 5 cm×2 cm rectangular dish, without nematicide; format: in vivo, Caenorhabditis elegans; details: for taxis index: 10 minutes after dissemination, 1 μL isoamyl alcohol diluted 1000-fold with water or 1 μL nonanone stock solution, average of 5 experiments
# Method: First, a rectangular dish having a bottom surface of 5 cm×2 cm was fabricated as an example (see FIGS. 1A and B). Nematodes were disseminated into a region defined by two lines at the center of the rectangular dish in the longitudinal direction, and an attractant or a repellent was applied to the region at the left end. […] In this example, isoamyl alcohol was used as an attractant, and nonanone was used as a repellent. Specifically, isoamyl alcohol was diluted 1000-fold with water, and 1 μL thereof was applied to the region at the left end. Further, 1 μL of the stock solution of nonanone was applied to the region at the left end. As the nematodes, wild type C. elegans (10 to 50 nematodes/experiment) were used. […] Specifically, the difference in the number of nematodes between those moved to the region (region indicated by O-mark in FIG. 4, corresponding to region 1 of the first embodiment) located between the region at the left end to which an attractant or a repellent was applied and the region at the center in the longitudinal direction in which the nematodes were disseminated and those moved to the region on the opposite side (region indicated by X-mark in FIG. 4, corresponding to region 2 of the first embodiment) was determined, and the result was divided by the number of all nematodes to determine the taxis index. Taxis Index (Taxis index)={(the number of nematodes in region indicated by symbol “O”)−(the number of nematodes in region indicated by symbol “X”)}/the number of all nematodes The experiment was repeated 5 times, to determine the average of taxis indices and SEM. The taxic behavior was evaluated in the same manner as in Example 1 except that urine (1/20 dilution) of a cancer patient or urine (1/20 dilution) of a healthy individual was used as an attractant or a repellent. […] Urine obtained from a plurality of different cancer patients was used.
# [2] = system: N2 Bristol strains; experiment: Taxic behavior evaluation system of third embodiment (5 cm×2 cm×1 mm recess in solid medium covered with plate); format: in vivo, Caenorhabditis elegans; details: 23° C., IAA diluted 10^−5-fold
# Method: The taxic behavior based on olfactory sense was evaluated using N2 Bristol strains that are nematode strains. […] After a reagent was mixed using the culture medium composition of the assay plate, followed by autoclaving, an appropriate amount of the reagent was poured into a 9 cm dish, and the solid medium was solidified by cooling while pressing a plastic plate of 5 cm×2 cm×1 mm against the surface. After the solid medium was solidified, the plastic plate was removed, to form a recess with a length of 5 cm, a width of 2 cm, and a depth of 1 mm on the surface of the solid medium. Then, isoamyl alcohol (IAA) diluted 10^-5-fold or nonanone (Nona) diluted 10^-3-fold was arranged at the position shown by the symbol “+” on the right side of FIG. 13, and nematodes cultured at 20° C. for 4 days were arranged at the center (which corresponded to region B in FIG. 13). Thereafter, the taxic behavior of nematodes at 23° C. was observed. The number of nematodes in the regions corresponding to regions A, B, and C in FIG. 13 were counted after a lapse of 0 minutes, 5 minutes, 10 minutes, and 20 minutes. The number of nematodes remaining was calculated as a ratio of the number of nematodes in response to the number of nematodes at 0 minutes at each time. Further, the taxis index was calculated based on the formula [[…])]. Here, N (A) is the number of nematodes that moved to region A, and N (B) is the number of nematodes that moved to region B.
# [3] = at 5 minutes, nonanone diluted 10^−3-fold
Compound,taxis index [1],"nematodes showing attraction behavior in response to the attractant ([1]; 10 minutes, from taxis index)","taxic behavior observed [2, 3]",taxic behavior observed ([2]; at 20 minutes),"nematodes showing avoidance behavior in response to the repellent ([1]; 10 minutes, from taxis index)"
CC(C)CCO [isoamyl alcohol],over 0.8,≥ 90%,migration behavior,migration behavior,–
CCCCCCCC(C)=O [nonanone],below −0.8,–,avoidance behavior,–,≥ 90%
